Measurements as given in patent publication US20090012103A1, “SUBSTITUTED HETEROCYCLIC COMPOUNDS” (priority 2007, published 2009).

Experiments:
hERG potassium channel = hERG potassium channel (Homo sapiens, UniProt Q12809); assay: hERG screening assay (PatchXpress patch clamp, CHO cell line)
Protocol: Compounds were screened to test their activity in blocking the hERG potassium channel. The hERG channel is heterologously expressed in a CHO (Chinese Hamster Ovary) cell line. Cells are maintained with standard tissue culture procedures and stable channel expression is maintained with 500 μg/ml G418 in the culture medium. Cells are harvested for testing on the PatchXpress automated patch clamp with Accumax (Innovative Cell Technologies, San Diego, Calif.) to isolate single cells.
The following solutions are used for electrophysiological recordings. The external solution contains: 2 mM CaCl2; 2 mM MgCl2; 4 mM KCl; 150 mM NaCl; 10 mM Glucose; 10 mM HEPES (pH 7.4 with 1M NaOH, osmolarity).
hERG channels are activated when the voltage is stepped to +20 mV from the −80 mV holding potential (see FIG. 3). During a 5 second step at +20 mV, the channels activate and then largely inactivate, so the currents are relatively small. Upon returning to −50 mV from +20 mV, hERG currents transiently become much larger as inactivation is rapidly removed and then the channel closes. The first step to −50 mV for 300 ms is used as a baseline for measuring the peak amplitude during the step to −50 mV after channel activation. The peak current at −50 mV is measured both under control conditions and after addition of compound.
All compounds are prepared as 10 mM DMSO stocks in glass vials. Stock solutions are mixed by vigorous vortexing and sonication for about 2 minutes at room temperature. For testing, compounds are diluted in glass vials using an intermediate dilution step in pure DMSO and then further diluted to working concentrations in external solution. Dilutions are prepared no longer than 20 minutes before use.
After achieving the whole-cell configuration, cells are monitored for 90 seconds to assess stability and washed with external solution for 66 seconds. The voltage protocol described above is then applied to the cells every 12 seconds and throughout the whole procedure. Only cells with stable recording parameters and meeting specified health criteria are allowed to enter the compound addition procedure.
External solution containing 0.1% DMSO (vehicle) is applied to the cells first to establish the control peak current amplitude. After allowing the current to stabilize for 3 to 5 minutes, 1 μM and then 10 μM test compounds are applied. Each compound concentration is added 4 times and cells are kept in test solution until the effect of the compound reaches steady state or for a maximum of 12 minutes. […] Washout in the external solution compartment is performed until the recovery of the current reaches steady state. Data are analyzed using DataXpress, Clampfit (Molecular Devices, Inc., Sunnyvale) and Origin 7 (Originlab Corp.)

[1] = biological target: wild-type human cardiac sodium channel, hNav1.5 (Homo sapiens, UniProt Q14524); assay: Late INa screening assay (late sodium current, PatchXpress whole cell patch clamp); assay type: cell-based; details: compound at 10 μM; read-out: Late INa % blk
Chain of wild-type human cardiac sodium channel, hNav1.5 (Q14524 whole entry): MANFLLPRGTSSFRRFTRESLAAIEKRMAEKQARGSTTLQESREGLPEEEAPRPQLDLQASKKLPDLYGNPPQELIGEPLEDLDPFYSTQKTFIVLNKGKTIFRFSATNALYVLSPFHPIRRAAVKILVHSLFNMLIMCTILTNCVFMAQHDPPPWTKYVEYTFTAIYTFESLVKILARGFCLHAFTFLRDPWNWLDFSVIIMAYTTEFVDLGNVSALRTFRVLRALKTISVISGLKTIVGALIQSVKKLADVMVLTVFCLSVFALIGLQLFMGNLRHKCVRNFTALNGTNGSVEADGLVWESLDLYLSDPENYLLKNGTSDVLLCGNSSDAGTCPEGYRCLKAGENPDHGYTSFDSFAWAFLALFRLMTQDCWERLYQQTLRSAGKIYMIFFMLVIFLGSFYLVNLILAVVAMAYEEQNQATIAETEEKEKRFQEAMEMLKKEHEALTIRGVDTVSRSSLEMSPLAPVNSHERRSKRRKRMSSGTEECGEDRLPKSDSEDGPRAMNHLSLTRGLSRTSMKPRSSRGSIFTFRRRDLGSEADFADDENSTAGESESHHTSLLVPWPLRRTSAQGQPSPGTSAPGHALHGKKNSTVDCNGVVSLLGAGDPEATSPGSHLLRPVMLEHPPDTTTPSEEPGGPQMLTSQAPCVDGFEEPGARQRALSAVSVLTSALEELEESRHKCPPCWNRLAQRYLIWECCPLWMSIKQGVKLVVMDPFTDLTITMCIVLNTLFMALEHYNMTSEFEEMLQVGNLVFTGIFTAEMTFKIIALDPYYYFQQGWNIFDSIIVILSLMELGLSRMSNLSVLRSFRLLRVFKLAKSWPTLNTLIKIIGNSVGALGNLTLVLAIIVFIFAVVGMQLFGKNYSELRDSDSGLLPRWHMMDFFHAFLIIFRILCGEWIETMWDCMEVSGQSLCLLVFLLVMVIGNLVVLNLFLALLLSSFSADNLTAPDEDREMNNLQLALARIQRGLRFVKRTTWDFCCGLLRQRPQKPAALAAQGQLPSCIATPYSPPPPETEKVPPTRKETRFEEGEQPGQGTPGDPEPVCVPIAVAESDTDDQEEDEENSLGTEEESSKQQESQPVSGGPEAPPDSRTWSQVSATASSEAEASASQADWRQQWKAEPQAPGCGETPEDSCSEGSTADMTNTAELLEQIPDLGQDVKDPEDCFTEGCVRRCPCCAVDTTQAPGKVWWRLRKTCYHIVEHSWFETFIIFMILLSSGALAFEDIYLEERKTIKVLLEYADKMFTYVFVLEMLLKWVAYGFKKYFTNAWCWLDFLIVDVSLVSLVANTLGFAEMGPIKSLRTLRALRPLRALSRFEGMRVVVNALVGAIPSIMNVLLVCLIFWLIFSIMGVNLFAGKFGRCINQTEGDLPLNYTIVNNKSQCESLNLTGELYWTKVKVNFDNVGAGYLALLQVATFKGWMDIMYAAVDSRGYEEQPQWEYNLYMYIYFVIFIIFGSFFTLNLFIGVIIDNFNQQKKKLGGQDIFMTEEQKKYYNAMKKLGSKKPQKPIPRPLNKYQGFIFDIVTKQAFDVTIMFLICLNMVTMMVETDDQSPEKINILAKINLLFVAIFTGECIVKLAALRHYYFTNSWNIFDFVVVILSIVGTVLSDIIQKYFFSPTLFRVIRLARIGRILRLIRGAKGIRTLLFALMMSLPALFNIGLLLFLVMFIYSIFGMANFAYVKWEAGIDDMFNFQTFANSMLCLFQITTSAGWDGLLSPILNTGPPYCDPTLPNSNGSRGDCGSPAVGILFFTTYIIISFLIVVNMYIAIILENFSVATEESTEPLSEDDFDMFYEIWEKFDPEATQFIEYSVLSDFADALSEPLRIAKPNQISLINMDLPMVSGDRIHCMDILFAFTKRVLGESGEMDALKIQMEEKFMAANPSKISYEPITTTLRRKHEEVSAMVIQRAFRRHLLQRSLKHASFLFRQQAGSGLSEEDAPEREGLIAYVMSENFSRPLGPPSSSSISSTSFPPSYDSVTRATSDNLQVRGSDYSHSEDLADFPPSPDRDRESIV

Chain of hERG potassium channel (Q12809 whole entry): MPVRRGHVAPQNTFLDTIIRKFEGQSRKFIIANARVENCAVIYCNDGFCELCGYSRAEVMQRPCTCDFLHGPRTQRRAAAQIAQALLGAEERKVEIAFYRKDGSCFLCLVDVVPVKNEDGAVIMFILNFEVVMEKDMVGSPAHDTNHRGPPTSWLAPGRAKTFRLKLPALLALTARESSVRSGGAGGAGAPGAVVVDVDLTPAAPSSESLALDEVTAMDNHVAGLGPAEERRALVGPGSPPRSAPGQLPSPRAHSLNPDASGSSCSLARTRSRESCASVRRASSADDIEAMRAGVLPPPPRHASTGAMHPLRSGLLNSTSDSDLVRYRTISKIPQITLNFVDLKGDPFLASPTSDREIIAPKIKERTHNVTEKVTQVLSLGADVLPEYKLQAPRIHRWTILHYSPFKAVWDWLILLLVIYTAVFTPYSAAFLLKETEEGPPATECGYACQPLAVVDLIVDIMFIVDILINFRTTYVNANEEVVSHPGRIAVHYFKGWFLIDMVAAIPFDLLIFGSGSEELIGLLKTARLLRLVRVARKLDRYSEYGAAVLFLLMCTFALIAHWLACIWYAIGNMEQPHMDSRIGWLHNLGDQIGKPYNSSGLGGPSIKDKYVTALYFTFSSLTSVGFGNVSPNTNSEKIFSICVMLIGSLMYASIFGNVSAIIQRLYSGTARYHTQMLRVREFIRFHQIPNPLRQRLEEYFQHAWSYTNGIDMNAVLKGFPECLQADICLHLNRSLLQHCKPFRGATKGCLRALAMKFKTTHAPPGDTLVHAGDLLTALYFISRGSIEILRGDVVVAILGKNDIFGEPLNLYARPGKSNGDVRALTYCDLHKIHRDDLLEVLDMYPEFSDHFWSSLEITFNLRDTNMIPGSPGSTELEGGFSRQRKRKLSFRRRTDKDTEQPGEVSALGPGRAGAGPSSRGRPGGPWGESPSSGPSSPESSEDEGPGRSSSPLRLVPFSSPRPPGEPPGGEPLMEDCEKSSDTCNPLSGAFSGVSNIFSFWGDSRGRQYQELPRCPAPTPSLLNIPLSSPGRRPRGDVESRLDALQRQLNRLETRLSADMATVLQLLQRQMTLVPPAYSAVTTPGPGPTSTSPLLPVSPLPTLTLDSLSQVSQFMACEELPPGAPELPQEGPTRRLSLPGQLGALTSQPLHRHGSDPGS

Compound	hERG Patch Clamp hERG % blk (hERG potassium channel; 1 μM)	hERG Patch Clamp hERG % blk (hERG potassium channel; 10 μM)	inhibition at 10 µM [1]
CC1=C(C(=O)OCc2ccccc2)C(c2cccc3c2OCO3)n2nnnc2N1 (stereo not shown) [PT-034, benzyl 7-(benzo[d][1,3]dioxol-4-yl)-5-methyl-4,7-dihydrotetrazolo[1,5-a]pyrimidine-6-carboxylate]	14.5%	56.0%	52.4%
CC1=C(C(=O)NCc2ccccc2)C(c2ccc3ccccc3c2)n2nnnc2N1 (stereo not shown) [PT-068, N-benzyl-5-methyl-7-(naphthalen-2-yl)-4,7-dihydrotetrazolo[1,5-a]pyrimidine-6-carboxamide]	14.0%	22.5%	14.3%
CCOC(=O)C1=C(C)Nc2nnnn2C1c1ccccc1-n1cccn1.Cl (stereo not shown) [PT-477, ethyl 7-(2-(1H-pyrazol-1-yl)phenyl)-5-methyl-4,7-dihydrotetrazolo[1,5-a]pyrimidine-6-carboxylate hydrochloride]	12.0%	44.0%	6.2%
CC1=C(C(=O)OCc2ccccc2)C(c2ccccc2-c2ccccc2)n2nnnc2N1 (stereo not shown) [PT-025, benzyl 7-(biphenyl-2-yl)-5-methyl-4,7-dihydrotetrazolo[1,5-a]pyrimidine-6-carboxylate]	11.0%	53.0%	78.8%
CC1=C(C(=O)O[C@@H](C)c2ccccc2)C(c2cc3ccccc3o2)n2nnnc2N1 (stereo partly drawn) [PT-059, (S)-1-phenylethyl 7-(benzofuran-2-yl)-5-methyl-4,7-dihydrotetrazolo[1,5-a]pyrimidine-6-carboxylate]	10.0%	66.5%	
CC1=C(C(=O)OCc2ccc(Cn3cccn3)cc2)C(c2cccc3ccccc23)n2nnnc2N1 (stereo not shown) [PT-279, 4-((1H-pyrazol-1-yl)methyl)benzyl 5-methyl-7-(naphthalen-1-yl)-4,7-dihydrotetrazolo[1,5-a]pyrimidine-6-carboxylate]	12.5%	45.0%	61.2%
CC1=C(C(=O)OCc2ccccc2)C(c2ccccc2N2CCCCC2)n2nnnc2N1 (stereo not shown) [PT-342, benzyl 5-methyl-7-(2-(piperidin-1-yl)phenyl)-4,7-dihydrotetrazolo[1,5-a]pyrimidine-6-carboxylate]	10.0%	47.5%	80.1%
COc1ccc(COC(=O)C2=C(C)Nc3nnnn3C2c2cccc3ccccc23)cc1OC (stereo not shown) [PT-061, 3,4-dimethoxybenzyl 5-methyl-7-(naphthalen-1-yl)-4,7-dihydrotetrazolo[1,5-a]pyrimidine-6-carboxylate]	24.0%	46.5%	37.3%
CCCC1=C(C(=O)OCC)C(c2ccsc2)C2=C(CC(c3ccco3)CC2=O)N1 (stereo not shown) [PT-150, ethyl 7-(furan-2-yl)-5-oxo-2-propyl-4-(thiophen-3-yl)-1,4,5,6,7,8-hexahydroquinoline-3-carboxylate]	28.2%	49.3%	52.9%
CCS(=O)(=O)N1CCN(c2cccc(OC)c2C2C(C(=O)OCc3ccccc3)=C(C)Nc3nnnn32)CC1 (stereo not shown) [PT-378, benzyl 7-(2-(4-(ethylsulfonyl)piperazin-1-yl)-6-methoxyphenyl)-5-methyl-4,7-dihydrotetrazolo[1,5-a]pyrimidine-6-carboxylate]	10.0%	41.5%	42%
CCOC(=O)C1=C(C)NC2=C(C(=O)CCC2)C1c1ccnc2ccccc12 (stereo not shown) [PT-190, ethyl 2-methyl-5-oxo-1,4,5,6,7,8-hexahydro-4,4′-biquinoline-3-carboxylate]	10.5%	32.0%	4.2%
CCOC(=O)C1=C(C)Nc2[nH]nc(C)c2C1c1cccc2ccccc12 (stereo not shown) [PT-074, ethyl 3,6-dimethyl-4-(naphthalen-1-yl)-4,7-dihydro-1H-pyrazolo[3,4-b]pyridine-5-carboxylate]	14.0%	43.0%	27.7%
CCOC(=O)C1=C(C)Nc2nnnn2C1c1csc2ccccc12 (stereo not shown) [PT-017, ethyl 7-(benzo[b]thiophen-3-yl)-5-methyl-4,7-dihydrotetrazolo[1,5-a]pyrimidine-6-carboxylate]	10.0%	23.5%	45.9%
N#CC1=C(N)NC2=C(C(=O)CCC2)C1c1ccc(Br)cc1 (stereo not shown) [PT-095, 2-amino-4-(4-bromophenyl)-5-oxo-1,4,5,6,7,8-hexahydroquinoline-3-carbonitrile]	10.0%	24.5%	4.9%
CCOC(=O)C1=C(C)Nc2nnnn2C1c1cc2ccccc2o1 (stereo not shown) [PT-019, ethyl 7-(benzofuran-2-yl)-5-methyl-4,7-dihydrotetrazolo[1,5-a]pyrimidine-6-carboxylate]	10.0%	26.0%	35.7%
CCOC(=O)C1=C(C)NC(C)=C(C(=O)OCC)C1c1cccs1 [PT-111, diethyl 2,6-dimethyl-4-(thiophen-2-yl)-1,4-dihydropyridine-3,5-dicarboxylate]	11.5%	48.5%	69.2%
N#CC1=C(N)OC2=C(C(=O)CC(c3ccccc3)C2)C1c1ccco1 (stereo not shown) [PT-104, 2-amino-4-(furan-2-yl)-5-oxo-7-phenyl-5,6,7,8-tetrahydro-4H-chromene-3-carbonitrile]	18.0%	46.0%	14.3%
CCOC(=O)C1=C(C)NC(C)=C(C(=O)OCC)C1c1sc2ccccc2c1C [PT-116, diethyl 2,6-dimethyl-4-(3-methylbenzo[b]thiophen-2-yl)-1,4-dihydropyridine-3,5-dicarboxylate]	22.9%	66.0%	
CC1=C(C(=O)OCc2ccccc2)C(c2ccc(-c3nnn[nH]3)cc2)n2nnnc2N1 (stereo not shown) [PT-403, benzyl 7-(4-(1H-tetrazol-5-yl)phenyl)-5-methyl-4,7-dihydrotetrazolo[1,5-a]pyrimidine-6-carboxylate]			9.7%
COC(=O)C1=C(C)Nc2[nH]ncc2C1c1nc(C)cs1 (stereo not shown) [PT-515, methyl 6-methyl-4-(4-methylthiazol-2-yl)-4,7-dihydro-1H-pyrazolo[3,4-b]pyridine-5-carboxylate]			10.8%
COC(=O)C1=C(C)Nc2ccnn2C1c1nc(C)cs1 (stereo not shown) [PT-511, methyl 5-methyl-7-(4-methylthiazol-2-yl)-4,7-dihydropyrazolo[1,5-a]pyrimidine-6-carboxylate]			19.5%
Cc1n[nH]c2c1C(c1cccc3ccccc13)C1=C(COC1=O)N2 (stereo not shown) [PT-081, 3-methyl-4-(naphthalen-1-yl)-7,8-dihydro-1H-furo[3,4-e]pyrazolo[3,4-b]pyridin-5(4H)-one]			16.6%
CCOC(=O)c1c(C)nc2[nH]ncc2c1-c1cccc2ccccc12 [PT-472, ethyl 6-methyl-4-(naphthalen-1-yl)-1H-pyrazolo[3,4-b]pyridine-5-carboxylate]			22.6%
CCOC(=O)C1=C(C)NC(C)=C(C(=O)OCC)C1c1ccc(-c2ccc(Cl)cc2)o1 [PT-118, diethyl 4-(5-(4-chlorophenyl)furan-2-yl)-2,6-dimethyl-1,4-dihydropyridine-3,5-dicarboxylate]			-3.8%
CC1=C(C(=O)OCc2ccccc2)[C@@H](c2ccccc2-c2cccc(F)c2)n2nnnc2N1 [PT-240, (R)-benzyl 7-(3′-fluorobiphenyl-2-yl)-5-methyl-4,7-dihydrotetrazolo[1,5-a]pyrimidine-6-carboxylate]			85%
CC1=C(C(=O)NCc2ccccc2)C(c2cccc3ccccc23)n2nnnc2N1 (stereo not shown) [PT-067, N-benzyl-5-methyl-7-(naphthalen-1-yl)-4,7-dihydrotetrazolo[1,5-a]pyrimidine-6-carboxamide]			24.4%
CCOC(=O)C1=C(C)Nc2[nH]ncc2C1c1ccccc1-c1ccc(NS(C)(=O)=O)cc1 (stereo not shown) [PT-471, ethyl 6-methyl-4-(4′-(methylsulfonamido)biphenyl-2-yl)-4,7-dihydro-1H-pyrazolo[3,4-b]pyridine-5-carboxylate]			30%
CCOC(=O)C1=C(C)Nc2nnnn2C1c1cccc(Oc2ccc(C(=O)O)cc2)c1 (stereo not shown) [PT-295, 4-(3-(6-(ethoxycarbonyl)-5-methyl-4,7-dihydrotetrazolo[1,5-a]pyrimidin-7-yl)phenoxy)benzoic acid]			7%
O=C1OCc2nc3[nH]ncc3c(-c3cccc4ccccc34)c21 [PT-301, 4-(naphthalen-1-yl)-1H-furo[3,4-e]pyrazolo[3,4-b]pyridin-5(7H)-one]			21.6%
CC1=C(C(=O)OCc2ccccc2)C(c2ccsc2)n2nnnc2N1 (stereo not shown) [PT-041, benzyl 5-methyl-7-(thiophen-3-yl)-4,7-dihydrotetrazolo[1,5-a]pyrimidine-6-carboxylate]			41.4%
